Measured values: PubChem BioAssay AID1963858 (Molecular Pharmacology Branch, DTP, NCI, 2024)
pIC50: −log10 of the molar value.

Test system: HOP-62 multicell spheroids with HUVEC/MSC, viability
Assay: Anticancer human tumor HOP-62 cell line growth inhibition [KRAS2];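 note: viability read after a week of compound exposure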;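 for viability, T/C: 100% = DMSO vehicle-treated spheroids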
Conditions: for pIC50: curve of first compound; for viability, T/C: stronger effect = lower value
Method in brief: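 Combination screen of spheroid viability in tumor-cell co-cultures with endothelial (HUVEC) and mesenchymal stem cell stroma. Each agent was tested in half-log dilutions, topping at clinical Cmax or at 10 microM without a known Cmax.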

[1] = second compound 0.1 µM, first compound 0.0316 µM
[2] = second compound 0.1 µM, first compound 0.1 µM
[3] = second compound 0.1 µM, first compound 0.316 µM
[4] = second compound 0.1 µM, first compound 1 µM
[5] = second compound 0.1 µM, first compound 3.16 µM
[6] = second compound 0.316 µM, first compound 0.0316 µM
[7] = second compound 0.316 µM, first compound 0.1 µM
[8] = second compound 0.316 µM, first compound 0.316 µM
[9] = second compound 0.316 µM, first compound 1 µM
[10] = second compound 0.316 µM, first compound 3.16 µM
[11] = second compound 1 µM, first compound 0.0316 µM
[12] = second compound 1 µM, first compound 0.1 µM
[13] = second compound 1 µM, first compound 0.316 µM
[14] = second compound 1 µM, first compound 1 µM
[15] = second compound 1 µM, first compound 3.16 µM
[16] = second compound 3.16 µM, first compound 0.0316 µM
[17] = second compound 3.16 µM, first compound 0.1 µM
[18] = second compound 3.16 µM, first compound 0.316 µM
[19] = second compound 3.16 µM, first compound 1 µM
[20] = second compound 3.16 µM, first compound 3.16 µM
[21] = second compound 10 µM, first compound 0.0316 µM
[22] = second compound 10 µM, first compound 0.1 µM
[23] = second compound 10 µM, first compound 0.316 µM
[24] = second compound 10 µM, first compound 1 µM
[25] = second compound 10 µM, first compound 3.16 µM
[26] = second compound 0.1 µM, first compound 10 µM
[27] = second compound 0.316 µM, first compound 10 µM
[28] = second compound 1 µM, first compound 10 µM
[29] = second compound 3.16 µM, first compound 10 µM
[30] = second compound 10 µM, first compound 10 µM

SMILES	pIC50 (second compound 0.1 µM)	pIC50 (second compound 0.316 µM)	pIC50 (second compound 1 µM)	pIC50 (second compound 3.16 µM)	pIC50 (second compound 10 µM)	viability, T/C [1]	viability, T/C [2]	viability, T/C [3]	viability, T/C [4]	viability, T/C [5]	viability, T/C [6]	viability, T/C [7]	viability, T/C [8]	viability, T/C [9]	viability, T/C [10]	viability, T/C [11]	viability, T/C [12]	viability, T/C [13]	viability, T/C [14]	viability, T/C [15]	further results
CC1COCCN1c1cc(-c2ccnn2C)c2ccnc(-c3ccn[nH]3)c2n1 (stereo not given) + CNCc1ccccc1-c1csc(C(C)Nc2nc(C)nc3cc(OC)c(OC)cc23)c1	7.26	7.21	7.43	> 8.00	> 8.00	73.1%	25.3%	13.5%	14%	16.4%	78.8%	28.7%	14.2%	15.2%	14.3%	53.9%	25.2%	17.4%	14.7%	12.8%	viability, T/C (second compound 0.1 µM, first compound 0.01 µM): 106%; viability, T/C (second compound 0.316 µM, first compound 0.01 µM): 106%; viability, T/C (second compound 1 µM, first compound 0.01 µM): 94.9%; viability, T/C (second compound 3.16 µM, first compound 0.01 µM): 3.68%; viability, T/C [16]: 0.24%; viability, T/C [17]: 2.16%; viability, T/C [18]: 0.06%; viability, T/C [19]: 0.06%; viability, T/C [20]: 0.27%; viability, T/C (second compound 10 µM, first compound 0.01 µM): 0.1%; viability, T/C [21]: 0.64%; viability, T/C [22]: 0.08%; viability, T/C [23]: 0.09%; viability, T/C [24]: 0.58%; viability, T/C [25]: 0.16%
CC1OCC2(CCN(c3cnc(Sc4ccnc(N)c4Cl)c(N)n3)CC2)C1N (stereo not given) + CNCc1ccccc1-c1csc(C(C)Nc2nc(C)nc3cc(OC)c(OC)cc23)c1	< 5.00	< 5.00	6.20	> 7.50	> 7.50	89.8%	80.4%	74.1%	67.5%	65.3%	85.5%	88%	69.2%	53.6%	52.3%	82.3%	76.2%	58.8%	45.4%	33.5%	viability, T/C [26]: 58.8%; viability, T/C [27]: 49.7%; viability, T/C [28]: 34.1%; viability, T/C [16]: 34.3%; viability, T/C [17]: 7.49%; viability, T/C [18]: 0.61%; viability, T/C [19]: 0.1%; viability, T/C [20]: 0.15%; viability, T/C [29]: 0.15%; viability, T/C [21]: 0.13%; viability, T/C [22]: 0.17%; viability, T/C [23]: 0.09%; viability, T/C [24]: 0.09%; viability, T/C [25]: 0.6%; viability, T/C [30]: 0.16%
Cn1nccc1Nc1nccc(-c2cc3c(s2)C(C)(C)N(CCN2CCOCC2)C3=O)n1 + CNCc1ccccc1-c1csc(C(C)Nc2nc(C)nc3cc(OC)c(OC)cc23)c1	5.91	6.07	6.19	> 7.50	> 7.50	110%	102%	92.8%	52.5%	34.6%	104%	98.3%	77.1%	47.5%	25.3%	101%	99%	68.3%	39.6%	27.6%	viability, T/C [26]: 28.3%; viability, T/C [27]: 26.9%; viability, T/C [28]: 27.1%; viability, T/C [16]: 1.01%; viability, T/C [17]: 2.12%; viability, T/C [18]: 0.23%; viability, T/C [19]: 0.16%; viability, T/C [20]: 0.1%; viability, T/C [29]: 0.18%; viability, T/C [21]: 0.19%; viability, T/C [22]: 0.19%; viability, T/C [23]: 0.2%; viability, T/C [24]: 0.2%; viability, T/C [25]: 0.22%; viability, T/C [30]: 0.23%
